# Tests used:
# Type in all cases: in vivo, human
# [1] = Mock beverage tasting of sweeteners in citric acid buffer and phosphoric acid buffer; settings: for Dosage for ~7 Brix SE: estimated concentrations, benchmark 500 ppm mogroside V
# From the text: Siamenoside I was separately tasted in citric acid buffer (pH 3.2) and phosphoric acid buffer (pH 2.6) at 500 ppm and compared against an equivalent solution of RebM90 (RebM with at least 90% purity) and various other sweeteners.
# Accordingly, the dosage of all other sweeteners was adjusted benchmark 500 ppm mogroside V. Estimated concentrations are presented below.
# [2] = Blind bench evaluation of sweeteners in six beverage matrices, RebM90 as control; settings: Lemon Lime Sparkling (70% sugar reduction)
# Method: A blind evaluation of the above-named sweeteners was conducted in six (6) beverage (liquid) matrices, including both sparkling and still matrixes. Of the six beverage matrices, four (4) were calorie reduction matrixes and two (2) were diet matrixes. RebM90 served as control. 7-10 internal team members blindly evaluated the samples.
# [3] = Blind bench tasting of lemon-lime flavored carbonated beverages; settings: in blends with Reb-M
# Method: The ingredients were dissolved in filtered water to constitute a syrup (6.5 times concentrated), then the final beverage was made by weighing the appropriate syrup amount and adding carbonated water using a ratio of 1 part syrup+5.5 parts carbonated water. Target carbonation volume in finished beverages was […] of CO2. For samples with high Reb-M content (#1 and #2) syrup water was heated to about 47° C. to allow Reb-M solubility, then cooled down to ambient temperature before adding the remaining ingredients. Final beverages were filled in 300 ml glass bottles then aged for 3 days at 35° C. before they were cooled and served cold (4° C.).
# Four experienced panelists bench tasted the beverages blindly. Each panelist was given warm bottled water and unsalted crackers to eat and rinse the palate between samples. A maximum of 3 samples was tasted at each session to avoid fatigue.
SMILES,Dosage for ~7 Brix SE [1] [ppm],other results
C[C@H](CC[C@@H](O[C@@H]1O[C@H](CO[C@@H]2O[C@H](CO)[C@@H](O)[C@H](O)[C@H]2O)[C@@H](O)[C@H](O)[C@H]1O[C@@H]1O[C@H](CO)[C@@H](O)[C@H](O)[C@H]1O)C(C)(C)O)[C@H]1CC[C@@]2(C)[C@@H]3CC=C4[C@@H](CC[C@H](O[C@@H]5O[C@H](CO)[C@@H](O[C@@H]6O[C@H](CO)[C@@H](O)[C@H](O)[C@H]6O)[C@H](O)[C@H]5O)C4(C)C)[C@]3(C)[C@H](O)C[C@]12C [Isomogroside V],270,"Comments: less sweet [2]: less sweet (−1.5 BE), mogroside"
C[C@H](CC[C@@H](O[C@@H]1O[C@H](CO)[C@@H](O)[C@H](O)[C@H]1O[C@@H]1O[C@H](CO)[C@@H](O)[C@H](O)[C@H]1O)C(C)(C)O)[C@H]1CC[C@@]2(C)[C@@H]3CC=C4[C@@H](CC[C@H](O[C@@H]5O[C@H](CO)[C@@H](O)[C@H](O)[C@H]5O)C4(C)C)[C@]3(C)[C@H](O)C[C@]12C [Mogroside IIIe],350,
C[C@H](CC[C@@H](O[C@@H]1O[C@H](CO)[C@@H](O)[C@H](O)[C@H]1O[C@@H]1O[C@H](CO)[C@@H](O)[C@H](O)[C@H]1O)C(C)(C)O)[C@H]1CC[C@@]2(C)[C@H]3CC=C4[C@@H](CC[C@H](O[C@@H]5O[C@H](CO[C@@H]6O[C@H](CO)[C@@H](O)[C@H](O)[C@H]6O)[C@@H](O)[C@H](O)[C@H]5O)C4(C)C)[C@]3(C)[C@H](O)C[C@]12C [Mogroside IV],435,
C[C@H](CC[C@@H](O[C@@H]1O[C@H](CO[C@@H]2O[C@H](CO)[C@@H](O)[C@H](O)[C@H]2O)[C@@H](O)[C@H](O)[C@H]1O[C@@H]1O[C@H](CO)[C@@H](O)[C@H](O)[C@H]1O)C(C)(C)O)[C@H]1CC[C@@]2(C)[C@@H]3CC=C4[C@@H](CC[C@H](O[C@@H]5O[C@H](CO[C@@H]6O[C@H](CO)[C@@H](O)[C@H](O)[C@H]6O)[C@@H](O)[C@H](O)[C@H]5O)C4(C)C)[C@]3(C)[C@H](O)C[C@]12C [Mogroside V],500,"Brix SE ([1]; 500 ppm): approximately 7 Brix SE; relative sweetness of solutions ([1]; 500 ppm, citric acid buffer pH 3.2 and phosphoric acid buffer pH 2.6): the least sweet"
C=C1C[C@@]23CC[C@H]4[C@@](C)(CCC[C@@]4(C)C(=O)O[C@@H]4O[C@H](CO)[C@@H](O)[C@H](O[C@@H]5O[C@H](CO)[C@@H](O)[C@H](O)[C@H]5O)[C@H]4O[C@@H]4O[C@@H](C)[C@H](O)[C@@H](O)[C@H]4O)[C@@H]2CC[C@]1(O[C@@H]1O[C@H](CO)[C@@H](O)[C@H](O[C@@H]2O[C@H](CO)[C@@H](O)[C@H](O)[C@H]2O)[C@H]1O[C@@H]1O[C@H](CO)[C@@H](O)[C@H](O)[C@H]1O)C3 [Rebaudioside N],360,
C[C@H](CC[C@@H](O[C@@H]1O[C@H](CO[C@@H]2O[C@H](CO)[C@@H](O)[C@H](O)[C@H]2O)[C@@H](O)[C@H](O)[C@H]1O[C@@H]1O[C@H](CO)[C@@H](O)[C@H](O)[C@H]1O)C(C)(C)O)[C@H]1CC[C@@]2(C)[C@@H]3CC=C4[C@@H](CC[C@H](O[C@@H]5O[C@H](CO)[C@@H](O)[C@H](O)[C@H]5O)C4(C)C)[C@]3(C)[C@H](O)C[C@]12C [Siamenoside I],350,maximum sweetness intensity [3]: 10 Brix equivalent
